{"source": "patent US12577223B2", "about": "“Processes for preparing 2-(4-chlorophenyl)-n-((2-(2,6-dioxopiperidin-3-yl)-1-oxoisoindolin-5-yl)methyl)-2,2-difluoroacetamide” (Celgene Corporation, priority 2019, dated 2026)", "assay": "dynamic vapor sorption (DVS) analysis", "format": "physicochemical", "conditions": "relative humidity increased from about 0% to about 90% RH", "excerpt": "FIG. 5 provides a DVS isotherm plot of polymorph Form C of 2-(4-chlorophenyl)-N-((2-(2,6-dioxopiperidin-3-yl)-1-oxoisoindolin-5-yl)methyl)-2,2-difluoroacetamide.\nIn certain embodiments, polymorph Form C is characterized by dynamic vapor sorption analysis. A representative dynamic vapor sorption (DVS) isotherm plot is shown in\nFIG. 5. […] In certain embodiments, polymorph Form C comprises less than 0.1% water as determined in a coulometric Karl Fischer (KF) titrator equipped with an oven sample processor set at 225° C."}
{"smiles": "O=C1CCC(N2Cc3cc(CNC(=O)C(F)(F)c4ccc(Cl)cc4)ccc3C2=O)C(=O)N1", "note": "(stereo not shown) [polymorph Form C, 2-(4-chlorophenyl)-N-((2-(2,6-dioxopiperidin-3-yl)-1-oxoisoindolin-5-yl)methyl)-2,2-difluoroacetamide]", "values": [{"measurement": "water uptake", "result": "about 0.6 % w/w"}]}
